Results on two molecules are retold here after ChEMBL document CHEMBL1139930, “Solvatochromism, DNA binding, antitumor activity and molecular modeling study of mixed-ligand copper(II) complexes containing the bulky ligand: bis[N-(p-tolyl)imino]acenaphthene” (Eur J Med Chem, 2007).

Experiment [1] can be described thus: Displacement of methyl green from DNA. Also noted: species or system Homo sapiens.
Experiment [2] concerns Ehrlich. In words: Antitumor activity against Ehrlich ascites carcinoma cells in mouse assessed as haemoglobin level at 20 mg/kg after 14 days. The format is functional.
Experiment [3] concerns Ehrlich. The experiment is described as follows: Antitumor activity against Ehrlich ascites carcinoma cells in mouse assessed as cell viability at 20 mg/kg after 5 days. The format is functional.
The test system of experiment [4] is Ehrlich. In words: Antitumor activity against Ehrlich ascites carcinoma cells in mouse assessed as RBC count at 20 mg/kg after 14 days. The class given is functional.
The test system of experiment [5] is Ehrlich. In words: Antitumor activity against Ehrlich ascites carcinoma cells in mouse assessed as increase in life span at 20 mg/kg relative to control. The format is functional.
Experiment [6] deals with Ehrlich. In words: Antitumor activity against Ehrlich ascites carcinoma cells in mouse assessed as WBC count at 20 mg/kg after 14 days. The format is functional.

Converted amounts (≈) assume the structure as drawn.

Broadly, the IC50 is the concentration that gives 50% inhibition. Low readings indicate greater potency, high ones weaker potency. As to `COc1cccc2c1C(=O)c1c(O)c3c(c(O)c1C2=O)C[C@@](O)(C(C)=O)C[C@@H]3O[C@H]1C[C@H](N)[C@H](O)[C@H](C)O1` [DAUNORUBICIN], the IC50 in experiment [1] was found to be 28 µg/mL (≈ 53.1 µM).
Turning to `O=c1[nH]cc(F)c(=O)[nH]1` [FLUOROURACIL], the Activity in the experiment with Ehrlich [2] was 15.6%; with Ehrlich [3], 83.6 10^6/100microL; in the experiment with Ehrlich [4] it was 5.87 /10^6mm3; with Ehrlich [5], 42.8%; in the experiment with Ehrlich [6], 14.7 /10^3mm3.
